Assay results from ChEMBL document CHEMBL1149762, “Carbamate prodrugs of N-alkylfuramidines” (Eur J Med Chem, 2008).

Legend:
Rattus norvegicus [1] = experiment: Toxicity against immunosuppressed rat pneumocystis model at 33.0 umol/kg/day, po; assay type: organism-based; conditions: in vivo
Rattus norvegicus [2] = experiment: Toxicity against immunosuppressed rat pneumocystis model at 10.8 umol/kg/day, iv; assay type: organism-based; conditions: in vivo
Pneumocystis carinii [3] = experiment: Antimicrobial activity against Pneumocystis carinii in immunosuppressed rat assessed as number of cysts/g of lung at 33.0 umol/kg/day, po relative to control; assay type: functional
Pneumocystis carinii [4] = experiment: Antimicrobial activity against Pneumocystis carinii in immunosuppressed rat assessed as number of cysts/g of lung at 10.8 umol/kg/day, iv relative to control; assay type: functional
Pneumocystis carinii [5] = experiment: Antimicrobial activity against Pneumocystis carinii in immunosuppressed rat assessed as number of cysts/g of lung at 9.4 umol/kg/day, iv relative to control; assay type: functional
Rattus norvegicus [6] = experiment: Toxicity against immunosuppressed rat pneumocystis model at 22.0 umol/kg/day, iv; assay type: organism-based; conditions: in vivo
Pneumocystis carinii [7] = experiment: Antimicrobial activity against Pneumocystis carinii in immunosuppressed rat assessed as number of cysts/g of lung at 22.0 umol/kg/day, iv relative to control; assay type: functional
Pneumocystis carinii [8] = experiment: Antimicrobial activity against Pneumocystis carinii in immunosuppressed rat assessed as number of cysts/g of lung at 11.0 umol/kg/day, iv relative to control; assay type: functional
Rattus norvegicus [9] = experiment: Toxicity against immunosuppressed rat pneumocystis model at 11.0 umol/kg/day, iv; assay type: organism-based; conditions: in vivo
Rattus norvegicus [10] = experiment: Toxicity against immunosuppressed rat pneumocystis model at 13.3 umol/kg/day, iv; assay type: organism-based; conditions: in vivo
Rattus norvegicus [11] = experiment: Toxicity against immunosuppressed rat pneumocystis model at 39.8 umol/kg/day, po; assay type: organism-based; conditions: in vivo
Pneumocystis carinii [12] = experiment: Antimicrobial activity against Pneumocystis carinii in immunosuppressed rat assessed as number of cysts/g of lung at 13.3 umol/kg/day, iv relative to control; assay type: functional
Pneumocystis carinii [13] = experiment: Antimicrobial activity against Pneumocystis carinii in immunosuppressed rat assessed as number of cysts/g of lung at 39.8 umol/kg/day, po relative to control; assay type: functional

| Structure (SMILES) | Activity (Rattus norvegicus [1]) | Activity (Pneumocystis carinii [3]) | Activity (Rattus norvegicus [6]) | Activity (Pneumocystis carinii [7]) | also measured |
| --- | --- | --- | --- | --- | --- |
| CC(C)NC(=N)c1ccc(-c2ccc(-c3ccc(C(=N)NC(C)C)cc3)o2)cc1 | Non-toxic | 78.52% |  |  | Activity (Rattus norvegicus [2]): Non-toxic; Activity (Pneumocystis carinii [4]): 0.26% |
| N=C(NC1CCCC1)c1ccc(-c2ccc(-c3ccc(C(=N)NC4CCCC4)cc3)o2)cc1 | Non-toxic | 125.3% |  |  | Activity (Pneumocystis carinii [5]): 0.04% |
| N/C(=N\C(=O)OCC(Cl)(Cl)Cl)c1ccc(-c2ccc(-c3ccc(/C(N)=N\C(=O)OCC(Cl)(Cl)Cl)cc3)o2)cc1 | Non-toxic | 5.45% | Non-toxic | 1.72% |  |
| O=C(/N=C(\NC1CCCC1)c1ccc(-c2ccc(-c3ccc(/C(=N\C(=O)OCC(Cl)(Cl)Cl)NC4CCCC4)cc3)o2)cc1)OCC(Cl)(Cl)Cl | Non-toxic | 3.7% | Non-toxic | 39.84% |  |
| CCOC(=O)/N=C(\NC(C)C)c1ccc(-c2ccc(-c3ccc(/C(=N/C(=O)OCC)NC(C)C)cc3)o2)cc1 | Non-toxic | 51.92% |  |  | Activity (Pneumocystis carinii [8]): 82.21%; Activity (Rattus norvegicus [9]): Non-toxic |
| CC(C)N/C(=N\C(=O)OCC(Cl)(Cl)Cl)c1ccc(-c2ccc(-c3ccc(/C(=N\C(=O)OCC(Cl)(Cl)Cl)NC(C)C)cc3)o2)cc1 | Non-toxic | 2.01% | Non-toxic | 0.02% |  |
| N=C(N)c1ccc(-c2ccc(-c3ccc(C(=N)N)cc3)o2)cc1 [FURAMIDINE] |  |  |  |  | Activity (Rattus norvegicus [10]): Non-toxic; Activity (Rattus norvegicus [11]): Non-toxic; Activity (Pneumocystis carinii [12]): 0.86%; Activity (Pneumocystis carinii [13]): 15.67% |
| CONC(=N)c1ccc(-c2ccc(-c3ccc(C(=N)NOC)cc3)o2)cc1 [PAFURAMIDINE] | Non-toxic | 1.21% | Non-toxic | 13.99% |  |
| N=C(N)c1ccc(OCCCCCOc2ccc(C(=N)N)cc2)cc1 [PENTAMIDINE] | Non-toxic | 67.78% |  | 2.75% |  |
